Here are results for seven molecules from patent US20080234355A1, “DNA METHYL TRANSFERASE INHIBITORS CONTAINING A ZINC BINDING MOIETY” (priority 2006, published 2008).

One data set deals with HDAC. The data set is described as follows: HDAC fluorimetric assay kit (AK-500, Biomol), HeLa nuclear extract. Format: biochemical. The note with it: Fluor de Lys substrate, 1 hour reaction, read-out: HDAC IC50 (grade). As to the method: (a) An In Vitro Assay which Determines the Ability of a Test Compound to Inhibit HDAC Enzymatic Activity.
HDAC inhibitors were screened using an HDAC fluorimetric assay kit (AK-500, Biomol, Plymouth Meeting, Pa.). Test compounds were dissolved in dimethylsulphoxide (DMSO) to give a 20 mM working stock concentration. Fluorescence was measured on a WALLAC Victor 2 plate reader and reported as relative fluorescence units (RFU). Data were plotted using GraphPad Prism (v4.0a) and IC50's calculated using a sigmoidal dose response curve fitting algorithm.
Each assay was setup as follows: Defrosted all kit components and kept on ice until use. Diluted HeLa nuclear extract 1:29 in Assay Buffer (50 mM Tris/Cl, pH 8.0, 137 mM NaCl, 2.7 mM KCl, 1 mM MgCl2). Prepared dilutions of Trichostatin A (TSA, positive control) and tested compounds in assay buffer (5× of final concentration). Diluted Fluor de Lys™ Substrate in assay buffer to 100 uM (50 fold=2× final). Diluted Fluor de Lys™ developer concentrate 20-fold (e.g. 50 μl plus 950 μl Assay Buffer) in cold assay buffer. Second, diluted the 0.2 mM Trichostatin A 100-fold in the 1× Developer (e.g. 10 μl in 1 ml; final Trichostatin A concentration in the 1× Developer=2 μM; final concentration after addition to HDAC/Substrate reaction=1 μM). Added Assay buffer, diluted trichostatin A or test inhibitor to appropriate wells of the microtiter plate. Added diluted HeLa extract or other HDAC sample to all wells except for negative controls. Allowed diluted Fluor de Lys™ Substrate and the samples in the microtiter plate to equilibrate to assay temperature (e.g. 25 or 37° C. Initiated HDAC reactions by adding diluted substrate (25 μl) to each well and mixing thoroughly. Allowed HDAC reactions to proceed for 1 hour and then stopped them by addition of Fluor de Lys™ Developer (50 μl). Incubated plate at room temperature (25° C.) for 10-15 min. Read samples in a microtiter-plate reading fluorimeter capable of excitation at a wavelength in the range 350-380 nm and detection of emitted light in the range 440-460 nm.

Data set [1] relates to ER mRNA expression in human ER-negative breast cancer cell lines. The note with it: cited from earlier work.
Data set [2] concerns gelatinase A (MMP2; Type IV collagenase). The note with it: 3T3 cells; cited from earlier work.

Molecules are shown by their SMILES. A value given as a limit tells only on which side of the number the result lay.

Turning to `CCN(CCNC(=O)c1ccc(N)cc1)C(=O)CCCCC(=O)NO` [Compound 36, N^1-(2-(4-aminobenzamido)ethyl)-N^1-ethyl-N^6-hydroxyadipamide], the IC50 with HDAC fell in the range of 1 to 10 µM.

As for `Nc1ccc(C(=O)NCCNCCC(=O)NO)cc1` [Compound 25], in the data set with HDAC, the IC50 was greater than 10 µM. For `CCN(CCNC(=O)c1ccc(N)cc1)C(=O)CCC(=O)NO` [Compound 34, N^1-(2-(4-aminobenzamido)ethyl)-N^1-ethyl-N^4-hydroxysuccinamide], the IC50 in the data set with HDAC was greater than 10 µM.

As to `Nc1ccc(C(=O)NCCNC(=O)CCCCC(=O)NO)cc1` [Compound 30], in the data set with HDAC, the IC50 fell in the range of 1 to 10 µM. As to `Nc1ccc(C(=O)NCCNC(=O)CCCC(=O)NO)cc1` [Compound 29, N-hydroxy-4-(2-(4-aminobenzamido)-ethylcarbamoyl)butanamide], the melting point is 158.9 to 159.8 °C. For the same molecule, in the data set on HDAC, the IC50 was 0.1 to 1 µM. `CC(/C=C/C(=O)NO)=C\[C@@H](C)C(=O)c1ccc(N(C)C)cc1` [TSA, trichostatin A]: in data set [1], the “increase in ER mRNA expression” value is 5 fold. For the same molecule, the “mRNA as well as zymographic activity of gelatinase A (MMP2)” value in data set [2] was “decreases”.

`Nc1ccc(C(=O)NCCNCCC(=O)CCC(=O)NO)cc1` [Compound 28]: the IC50 in the data set on HDAC is greater than 10 µM.

For orientation: IC50 means the concentration at which inhibition is half-maximal. As usually defined, the melting point is the temperature of the solid-liquid transition.
